Experimental data published in PMC12048447, “PANTAX: a phase Ib clinical trial of the efflux pump inhibitor SCO-101 in combination with gemcitabine and nab-paclitaxel in non-resectable or metastatic pancreatic cancer” (Investigational New Drugs, 2025).

Assays:
[1] = tested on: PANC-1-Pac cells; test: MTT cell viability and ZIP synergy in paclitaxel-resistant PANC-1-Pac cells; type: cell-based, human; settings: 72 h with drug + 72 h fresh media
From the text: A paclitaxel-sensitive human PDAC cell line, PANC-1, was obtained (ATCC, CRL-1469) and the derived paclitaxel-resistant PANC-1-Pac cell line was established by gradually increasing concentrations of paclitaxel over a period of 2–4 months. Standard MTT and crystal violet assays were applied to evaluate the effect of treatment with either combinations of SCO-101 and paclitaxel or SRPK1-inhibitor and paclitaxel. Details are presented in the Online Resource.
Statistical analyses were mainly descriptive and included mean, median, range, and 95% CIs. Kaplan–Meier plots were constructed using Stata version 18 (StataCorp, 2023). In the preclinical study, the zero interaction potency (ZIP) synergy score was calculated as described by Yadav et al., to quantify the deviation from the expectation of zero interaction between drugs. A ZIP synergy score above 10 indicates synergy.
A paclitaxel-sensitive human PDAC cell line PANC-1 was obtained (ATCC, CRL-1469) and the derived paclitaxel-resistant PANC-1-Pac cell line was established by gradually increasing concentrations of paclitaxel over a period of 2-4 months. Standard MTT and crystal violet assays were applied to evaluate the effect of treatment with either combinations of SCO-101/paclitaxel or SRPK1 inhibitor/paclitaxel.
The selection began at 1 nM, increased to 2 nM and 4 nM, and ended at 8 nM. For each drug concentration the cells were kept for three passages. To evaluate the effect of the treatment either a Crystal Violet assay or MTT (3-(4,5-dimethylthiazol-2-yl)-2,5-diphenyltetrazolium bromide) assay were applied.
The MTT was conducted according to standard conditions. In short, cells were seeded at a density of 7,000 cells/well into a 96-well. One day after seeding, the cells were experimentally treated. Control conditions consisted of either growth medium (‘untreated’) or DMSO diluted in growth medium. All treatments were performed in triplicates. The cells were then kept in the CO2 incubator at 37 °C for 72 hours and plates were incubated with 100μl 1:10 MTT (0.5 mg/ml dissolved in phosphate buffered saline) for 3 hours and hereafter stopped using 100μl/well stop buffer (50g Sodium Dodecyl Sulphate, 245 mL MiliQ H2O, 5mL 1.0 N HCl was added to dissolve the formazan crystals overnight. Optical densities were measured at 570 and 670 nm.
Experiments with 4 different concentrations of either SCO-101 or paclitaxel and their combinations were applied to test for synergy among these two compounds in both the PANC-1 parental and -Paclitaxel resistant cells. SCO-101 was applied in 10, 20, 40 and 50 µM whereas paclitaxel was tested in 5, 10, 15 and 20 nM for a total of 144 h, where drug was only present in the first 72h (sFig 2). The SRPK1 inhibitor SPHINX31 was tested at 0.1; 0.5; 1 and 5 µM. The SRPK1 inhibitor SRPIN was tested at 1; 5; 10 and 50 µM. Both inhibitors were tested in combination with 5, 10, 15 and 20 nM Paclitaxel.
PANC-1-Pac cells treated with paclitaxel and SRPIN340 with four different concentrations of each for a total of 144 hours. Cell viability was evaluated by MTT assays and reported as percentage of untreated control (medium). Error bars indicate percentage standard deviation.

[2] = tested on: patients with non-resectable or metastatic PDAC; test: PANTAX phase Ib: efficacy (RECIST v1.1, PFS, OS, Ca 19-9); type: in vivo, human; settings: SCO-101 with Gem and Nab
From the text: The PANTAX trial was a prospective, international multicenter phase Ib open-label, non-randomized, dose-escalation study aiming to determine the MTD, safety, and tolerability of SCO-101 when combined with Gem and Nab in patients with non-resectable or metastatic PDAC (Protocol nr. SCO101-002, EudraCT nr. 2020–002627-11; ClinicalTrials.gov identifier NCT04652206). Furthermore, the study aimed to establish the pharmacokinetic profile of SCO-101 in combination with Gem and Nab. ORR, clinical benefit rate (CBR), median progression free survival (mPFS), and mOS were included as secondary end points.
Tumor evaluation by CT and MRI scans were done every 8 weeks. Response was determined according to RECIST v 1.1 [21] by local assessment. ORR was determined as the percentage of evaluable patients experiencing a complete response (CR) or partial response (PR). CBR was determined as the percentage of evaluable patients experiencing response or stable disease (SD) for over 16 weeks. Date of study inclusion was the index date. For assessment of PFS, the date of PD was the date of imaging showing progression or date of last treatment in patients with deteriorating clinical condition. Patients not followed until progression were censored for PFS at the date of last follow-up. One patient was lost to follow-up for survival and was censored from OS analysis on the date of last visit. End of study was 6 months after the last patients last treatment visit.

In the case of `O=C(Nc1cc(C(F)(F)F)cc(C(F)(F)F)c1)Nc1ccc(Br)cc1-c1nnn[nH]1` [SCO-101], the “effect on PANC-1-Pac cells (cell viability), drug alone” value [1] is reported as “dose-dependent effect”, the “ZIP synergy score with paclitaxel” value ([1]; PANC-1-Pac cells, SCO-101 + paclitaxel, score above 10 indicates synergy) is reported as 16.795 and the “patients with reduction of serum Ca 19-9 of at least 25%” value ([2]; 15 patients with elevated Ca 19-9 at treatment initiation) is reported as 53%. For the same compound, the “objective response rate (ORR)” value ([2]; 15 evaluable patients) was 6.7%, the “median progression-free survival (mPFS)” value ([2]; CI 1.7-9.2 months) was 3.3 months and the “median overall survival (mOS)” value ([2]; CI 5.7-16 months) was 9.5 months. For the same compound, the “clinical benefit rate (CBR)” value ([2]; response or SD over 16 weeks, 15 evaluable patients) was 33%.
